Results reported in PubChem BioAssay AID248 (DTP/NCI, 2004).
Values joined by “and” are separate entries in the source; they are usually repeats but may differ in a detail not shown here. Identical values can stand only once. Inconclusive results and toxic doses are left out.

System: L1210 leukemia ip in BDF1 mice, survival T/C
Test: NCI In Vivo Anticancer Drug Screen. Data for tumor model L1210 Leukemia (intraperitoneal) in B6D2F1 (BDF1) mice
Conditions: endpoint: mean survival time, higher = longer survival
Method in brief: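 Tumor cells were implanted, animals were treated, and survival was followed. The result divides the treated measurement by the vehicle-control measurement.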

For `O=C(Nc1ccc(C2=NCCN2)cc1)c1ccc(C(=O)Nc2ccc(C3=NCCN3)cc2)cc1`, the T/C (dose: 0.62 mg/kg/injection, schedule: Q#A X Z (ip), vehicle: saline) was 114 % of control, the T/C (dose: 0.63 mg/kg/injection, schedule: Q01DX Z (sc), vehicle: saline) was 104 % of control and the T/C (dose: 1.25 mg/kg/injection, schedule: Q01DX Z (ip), vehicle: other) was 287 % of control. The T/C (dose: 1.25 mg/kg/injection, schedule: Q01DX Z (sc), vehicle: saline) was 101 % of control, the T/C (dose: 1.87 mg/kg/injection, schedule: Q01DX Z (ip), vehicle: carboxymethylcellulose (CMC)) was 112 % of control and the T/C (dose: 1.88 mg/kg/injection, schedule: Q03DX Z (ip), vehicle: saline) was 103 % of control. For the same compound, the T/C (dose: 2.5 mg/kg/injection, schedule: Q01DX Z (ip), vehicle: other) was 158 % of control, the T/C (dose: 2.5 mg/kg/injection, schedule: Q01DX Z (sc), vehicle: saline) was 104 % of control and the T/C (dose: 3.75 mg/kg/injection, schedule: Q01DX Z (ip), vehicle: carboxymethylcellulose (CMC)) was 121 % of control. For the same compound, the T/C (dose: 3.75 mg/kg/injection, schedule: Q03DX Z (ip), vehicle: saline) was 114 % of control, the T/C (dose: 4.4 mg/kg/injection, schedule: Q01DX001 (ip), vehicle: saline) was 103 % of control and the T/C (dose: 4.4 mg/kg/injection, schedule: Q07DX Z (ip), vehicle: saline) was 103 % of control. For the same compound, the T/C (dose: 5.0 mg/kg/injection, schedule: Q01DX005 (iv), vehicle: saline) was 102 % of control, the T/C (dose: 5.0 mg/kg/injection, schedule: Q01DX Z (ip), vehicle: acid diluted with saline) was 243 % of control and the T/C (dose: 5.0 mg/kg/injection, schedule: Q01DX Z (ip), vehicle: other) was 179 % of control. For the same compound, the T/C (dose: 5.0 mg/kg/injection, schedule: Q01DX Z (sc), vehicle: saline) was 101 % of control, the T/C (dose: 5.0 mg/kg/injection, schedule: Q#A X Z (ip), vehicle: saline) was 194 % of control and the T/C (dose: 7.5 mg/kg/injection, schedule: Q03DX Z (ip), vehicle: saline) was 115 % of control. For the same compound, the T/C (dose: 8.8 mg/kg/injection, schedule: Q01DX001 (ip), vehicle: saline) was 97 % of control and 112 % of control, the T/C (dose: 8.8 mg/kg/injection, schedule: Q07DX Z (ip), vehicle: saline) was 105 % of control and the T/C (dose: 10.0 mg/kg/injection, schedule: Q01DX005 (iv), vehicle: saline) was 103 % of control. The T/C (dose: 10.0 mg/kg/injection, schedule: Q01DX Z (ip), vehicle: acid diluted with saline) was 205 % of control, the T/C (dose: 10.0 mg/kg/injection, schedule: Q01DX Z (iv), vehicle: acid diluted with saline) was 123 % of control and the T/C (dose: 10.0 mg/kg/injection, schedule: Q01DX Z (sc), vehicle: acid diluted with saline) was 175 % of control. For the same compound, the T/C (dose: 10.0 mg/kg/injection, schedule: Q#A X Z (ip), vehicle: saline) was 291 % of control, the T/C (dose: 15.0 mg/kg/injection, schedule: Q01DX Z (ip), vehicle: carboxymethylcellulose (CMC)) was 168 % of control and 269 % of control and 197 % of control and the T/C (dose: 15.6 mg/kg/injection, schedule: Q01DX Z (sc), vehicle: other) was 181 % of control. For the same compound, the T/C (dose: 17.5 mg/kg/injection, schedule: Q01DX001 (ip), vehicle: saline) was 112 % of control and 264 % of control, the T/C (dose: 20.0 mg/kg/injection, schedule: Q01DX005 (iv), vehicle: saline) was 115 % of control and the T/C (dose: 20.0 mg/kg/injection, schedule: Q01DX Z (ip), vehicle: acid diluted with saline) was 158 % of control. The T/C (dose: 20.0 mg/kg/injection, schedule: Q01DX Z (ip), vehicle: saline) was 316 % of control, the T/C (dose: 20.0 mg/kg/injection, schedule: Q01DX Z (sc), vehicle: acid diluted with saline) was 165 % of control and the T/C (dose: 20.0 mg/kg/injection, schedule: Q#A X Z (ip), vehicle: saline) was 178 % of control. The T/C (dose: 30.0 mg/kg/injection, schedule: Q01DX Z (ip), vehicle: acid diluted with saline) was 182 % of control, the T/C (dose: 30.0 mg/kg/injection, schedule: Q01DX Z (ip), vehicle: carboxymethylcellulose (CMC)) was 320 % of control and the T/C (dose: 30.0 mg/kg/injection, schedule: Q03DX Z (ip), vehicle: saline) was 200 % of control. The T/C (dose: 31.3 mg/kg/injection, schedule: Q01DX004 (im), vehicle: olive oil, sesame oil, peanut oil) was 97 % of control, the T/C (dose: 31.3 mg/kg/injection, schedule: Q01DX004 (im), vehicle: saline) was 104 % of control and the T/C (dose: 31.3 mg/kg/injection, schedule: Q01DX Z (ip), vehicle: other) was 112 % of control. For the same compound, the T/C (dose: 31.3 mg/kg/injection, schedule: Q01DX Z (sc), vehicle: other) was 195 % of control, the T/C (dose: 35.0 mg/kg/injection, schedule: Q07DX Z (ip), vehicle: saline) was 160 % of control and the T/C (dose: 40.0 mg/kg/injection, schedule: Q01DX Z (ip), vehicle: saline) was 348 % of control. The T/C (dose: 40.0 mg/kg/injection, schedule: Q#A X Z (ip), vehicle: saline) was 210 % of control, the T/C (dose: 60.0 mg/kg/injection, schedule: Q01DX Z (ip), vehicle: acid diluted with saline) was 153 % of control and the T/C (dose: 60.0 mg/kg/injection, schedule: Q01DX Z (ip), vehicle: carboxymethylcellulose (CMC)) was 246 % of control. For the same compound, the T/C (dose: 60.0 mg/kg/injection, schedule: Q03DX Z (ip), vehicle: saline) was 304 % of control, the T/C (dose: 62.5 mg/kg/injection, schedule: Q01DX004 (im), vehicle: olive oil, sesame oil, peanut oil) was 100 % of control and the T/C (dose: 62.5 mg/kg/injection, schedule: Q01DX Z (ip), vehicle: other) was 111 % of control. For the same compound, the T/C (dose: 62.5 mg/kg/injection, schedule: Q01DX Z (sc), vehicle: other) was 158 % of control, the T/C (dose: 70.0 mg/kg/injection, schedule: Q01DX001 (ip), vehicle: saline) was 156 % of control and 161 % of control and the T/C (dose: 70.0 mg/kg/injection, schedule: Q07DX Z (ip), vehicle: saline) was 205 % of control. The T/C (dose: 80.0 mg/kg/injection, schedule: Q01DX Z (ip), vehicle: saline) was 183 % of control, the T/C (dose: 80.0 mg/kg/injection, schedule: Q#A X Z (ip), vehicle: saline) was 210 % of control and the T/C (dose: 120.0 mg/kg/injection, schedule: Q01DX Z (ip), vehicle: acid diluted with saline) was 176 % of control. The T/C (dose: 120.0 mg/kg/injection, schedule: Q01DX Z (ip), vehicle: carboxymethylcellulose (CMC)) was 115 % of control and 204 % of control, the T/C (dose: 120.0 mg/kg/injection, schedule: Q03DX Z (ip), vehicle: saline) was 243 % of control and 252 % of control and the T/C (dose: 125.0 mg/kg/injection, schedule: Q01DX004 (im), vehicle: olive oil, sesame oil, peanut oil) was 100 % of control. For the same compound, the T/C (dose: 125.0 mg/kg/injection, schedule: Q01DX Z (ip), vehicle: other) was 97 % of control, the T/C (dose: 125.0 mg/kg/injection, schedule: Q01DX Z (sc), vehicle: other) was 161 % of control and the T/C (dose: 140.0 mg/kg/injection, schedule: Q01DX001 (ip), vehicle: saline) was 223 % of control. The T/C (dose: 140.0 mg/kg/injection, schedule: Q07DX Z (ip), vehicle: saline) was 282 % of control, the T/C (dose: 160.0 mg/kg/injection, schedule: Q01DX Z (ip), vehicle: saline) was 174 % of control and the T/C (dose: 160.0 mg/kg/injection, schedule: Q#A X Z (ip), vehicle: saline) was 176 % of control. For the same compound, the T/C (dose: 250.0 mg/kg/injection, schedule: Q01DX004 (im), vehicle: olive oil, sesame oil, peanut oil) was 121 % of control, the T/C (dose: 250.0 mg/kg/injection, schedule: Q01DX004 (im), vehicle: saline) was 204 % of control and 208 % of control and the T/C (dose: 250.0 mg/kg/injection, schedule: Q01DX Z (sc), vehicle: other) was 168 % of control. For the same compound, the T/C (dose: 250.0 mg/kg/injection, schedule: Q01DX Z (sc), vehicle: saline) was 217 % of control, the T/C (dose: 280.0 mg/kg/injection, schedule: Q07DX Z (ip), vehicle: saline) was 250 % of control and 327 % of control and the T/C (dose: 320.0 mg/kg/injection, schedule: Q01DX Z (ip), vehicle: saline) was 162 % of control. For the same compound, the T/C (dose: 480.0 mg/kg/injection, schedule: Q03DX Z (ip), vehicle: saline) was 194 % of control, the T/C (dose: 500.0 mg/kg/injection, schedule: Q01DX004 (im), vehicle: saline) was 262 % of control and the T/C (dose: 500.0 mg/kg/injection, schedule: Q01DX Z (sc), vehicle: saline) was 195 % of control. The T/C (dose: 560.0 mg/kg/injection, schedule: Q01DX001 (ip), vehicle: saline) was 184 % of control and 210 % of control, the T/C (dose: 560.0 mg/kg/injection, schedule: Q07DX Z (ip), vehicle: saline) was 261 % of control and the T/C (dose: 640.0 mg/kg/injection, schedule: Q01DX Z (ip), vehicle: saline) was 124 % of control. The T/C (dose: 750.0 mg/kg/injection, schedule: Q01DX Z (sc), vehicle: saline) was 183 % of control and 290 % of control, the T/C (dose: 960.0 mg/kg/injection, schedule: Q03DX Z (ip), vehicle: saline) was 164 % of control and the T/C (dose: 1000.0 mg/kg/injection, schedule: Q01DX004 (im), vehicle: saline) was 267 % of control. For the same compound, the T/C (dose: 1112.0 mg/kg/injection, schedule: Q01DX001 (ip), vehicle: saline) was 157 % of control, the T/C (dose: 1500.0 mg/kg/injection, schedule: Q01DX Z (sc), vehicle: saline) was 215 % of control and the T/C (dose: 18.8 micrograms/kg/injection, schedule: Q01DX Z (ip), vehicle: saline) was 96 % of control. The T/C (dose: 37.5 micrograms/kg/injection, schedule: Q01DX Z (ip), vehicle: saline) was 96 % of control, the T/C (dose: 75.0 micrograms/kg/injection, schedule: Q01DX Z (ip), vehicle: saline) was 100 % of control and the T/C (dose: 150.0 micrograms/kg/injection, schedule: Q01DX Z (ip), vehicle: saline) was 94 % of control. The T/C (dose: 230.0 micrograms/kg/injection, schedule: Q01DX Z (ip), vehicle: carboxymethylcellulose (CMC)) was 98 % of control, the T/C (dose: 460.0 micrograms/kg/injection, schedule: Q01DX Z (ip), vehicle: carboxymethylcellulose (CMC)) was 118 % of control and the T/C (dose: 930.0 micrograms/kg/injection, schedule: Q01DX Z (ip), vehicle: carboxymethylcellulose (CMC)) was 113 % of control.
